# Legend:
# Format in all cases: in vivo
# [1] = test system: Fusarium graminearum; settings: Table L; 62.5 ppm a.i.
# [2] = test system: Blumeria graminis fsp. tritici; test: Blumeria test (wheat)/preventive; settings: Table G; 62.5 ppm a.i.
# Description: (§1) Solvent: 49 parts by weight of n,n-dimethylacetamid
# (§2) Emulsifier: 1 part by weight of alkylaryl polyglycol ether
# (§3) To produce a suitable preparation of active compound, 1 part by weight of active compound or active compound combination is mixed with the stated amounts of solvent and emulsifier, and the concentrate is diluted with water to the desired concentration. To test for preventive activity, young plants are sprayed with the preparation of active compound or active compound combination at the stated rate of application. After the spray coating has been dried, the plants are dusted with spores of Blumeria graminis fsp. tritici. The plants are placed in the greenhouse at a temperature of approximately 18° C. and a relative atmospheric humidity of approximately 80% to promote the development of mildew pustules. The test is evaluated 7 days after the inoculation. 0% means an efficacy which corresponds to that of the untreated control, while an efficacy of 100% means that no disease is observed.
# [3] = test system: Alternaria solani; test: Alternaria test (tomatoes)/protective; settings: Table E, test 2, 2.5 ppm a.i.; for pest or weed control at 2.5 ppm: Alternaria solani, 72 h, read-out: Efficacy in % found
# Description: (§4) Solvent: 24.5 parts by weight of acetone
# (§5) • 24.5 parts by weight of dimethylacetamide Emulsifier: 1 part by weight of alkylaryl polyglycol ether
# (§6) To produce a suitable preparation of active compound, 1 part by weight of active compound is mixed with the stated amounts of solvent and emulsifier, and the concentrate is diluted with water to the desired concentration. To test for protective activity, young plants are sprayed with the preparation of active compound at the stated rate of application. After the spray coating has dried on, the plants are inoculated with an aqueous spore suspension of Alternaria solani. The plants are then placed in an incubation cabinet at approximately 20° C. and a relative atmospheric humidity of 100%. The test is evaluated 3 days after the inoculation. 0% means an efficacy which corresponds to that of the control while an efficacy of 100% means that no disease is observed.
# [4] = test system: Botrytis cinerea; test: Botrytis test (beans)/protective; settings: Botrytis cinerea, 48 h, Table F, test 3, read-out: Efficacy in % found
# Description: as §4, §5
# To produce a suitable preparation of active compound, 1 part by weight of active compound is mixed with the stated amounts of solvent and emulsifier, and the concentrate is diluted with water to the desired concentration. To test for protective activity, young plants are sprayed with the preparation of active compound. After the spray coating has dried on, 2 small pieces of agar covered with growth of Botrytis cinerea are placed on each leaf. The inoculated plants are placed in a darkened chamber at 20° C. and a relative atmospheric humidity of 100%. 2 days after the inoculation, the size of the lesions on the leaves is evaluated. 0% means an efficacy which corresponds to that of the control, while an efficacy of 100% means that no disease is observed.
# [5] = test system: Puccinia triticina; test: Puccinia triticina-test (wheat)/preventive; settings: Table M; 62.5 ppm a.i.
# Description: as §1, §2
# as §3, with “sprayed” for “dusted”, “a spore suspension” for “spores”, “Puccinia triticina. The plants remain for 48 hours in an incubation cabinet at approximately 20° C. and a relative atmospheric humidity of approximately 100%.” for “Blumeria graminis fsp. tritici.”, “20°” for “18°”, “80%.” for “80% to promote the development of mildew pustules.”, “8” for “7”
# [6] = test system: Plasmopara viticola; test: Plasmopara test (grapevines)/protective; settings: Table B
# Description: as §4, §5
# as §6, with “Plasmopara viticola and” for “Alternaria solani. The plants are”, “remain for 1 day” for “placed”, “The plant is subsequently placed for 4 days in a greenhouse at approximately 21° C. and a relative atmospheric humidity of approximately 90%. The plants are then misted and placed for 1 day in an incubation cabinet. The” for “The”, “6” for “3”, “control,” for “control”
# [7] = test system: Sphaerotheca fuliginea; test: Sphaerotheca test (cucumbers)/protective; settings: Table C, test 4; 5 ppm a.i.
# Description: as §4, §5
# To produce a suitable preparation of active compound, 1 part by weight of active compound is mixed with the stated amounts of solvent and emulsifier, and the concentrate is diluted with water to the desired concentration. To test for protect activity, young plants are sprayed with the preparation of active compound at the stated rate of application. After the spray coating has dried on, the plants are inoculated with an aqueous spore suspension of Sphaerotheca fuliginea. The plants are then placed in a greenhouse at approximately 23° C. and a relative atmospheric humidity of approximately 70%. The test is evaluated 7 days after the inoculation. 0% means an efficacy which corresponds to that of the control, while an efficacy of 100% means that no disease is observed.
# [8] = test system: Phytophthora infestans; test: whole plant or invertebrate; settings: Phytophthora infestans, 72 h, read-out: Efficacy in % found, Table A, test 1; 1 ppm a.i.
compound,measurement,setting,value
"CC1(C)CCC(Cc2ccc(Cl)cc2)C1(O)Cn1cncn1 (stereo not drawn) [1.30, metconazole]",Efficacy in % found,[1],0%
"CCCC1COC(Cn2cncn2)(c2ccc(Cl)cc2Cl)O1 (stereo not drawn) [(1.40), propiconazole]",Efficacy in % found,[2],38%
"CC(C)CC(C)c1sccc1NC(=O)c1cn(C)nc1C(F)(F)F (stereo not drawn) [(2.20), penthiopyrad]",pest or weed control at 2.5 ppm,[3],50%
same,pest or weed control at 2.5 ppm,[4]; 2.5 ppm a.i.,65%
same,Efficacy in % found,[5],70%
"Cc1ccc(-c2c(Cl)nc(C#N)n2S(=O)(=O)N(C)C)cc1 [(3.3), cyazofamid]",Efficacy in % found,[6]; 1 ppm a.i.,0%
"CNC(=O)/C(=N/OC)c1ccccc1Oc1ccccc1 [(3.10), metominostrobin]",pest or weed control at 2.5 ppm,[3],15%
same,pest or weed control at 50 ppm,[4]; 50 ppm a.i.,55%
same,Efficacy in % found,[2],13%
"CO/C=C(/C(=O)OC)c1ccccc1COc1cccc(C(F)(F)F)n1 [(3.12), picoxystrobin]",Efficacy in % found,[7],62%
same,Efficacy in % found,[3],60%
same,Efficacy in % found,[5],80%
"CCC(C)(NC(=O)c1cc(Cl)c(C)c(Cl)c1)C(=O)CCl (stereo not drawn) [(4.9), zoxamide]",pest or weed control at 1 ppm,[8],58%
same,Efficacy in % found,[6]; 2 ppm a.i.,6%
"C#CCOc1ccc(CCNC(=O)C(OCC#C)c2ccc(Cl)cc2)cc1OC (stereo not drawn) [(9.5), mandipropamid]",Efficacy in % found,[6]; 1 ppm a.i.,57%

# Source: patent publication US9006139B2, “Active compound combinations” (Bayer Intellectual Property GmbH, priority 2009, dated 2015)
